Measurements: ChEMBL document CHEMBL1201862, “PubChem BioAssay data set” (2004)
Calls of active or inactive are those of the source.

Tests used:
[1] = target: T1, Carboxy-terminal domain RNA polymerase II polypeptide A small phosphatase 1 (Homo sapiens, UniProt Q9GZU7); assay: CTDSP1 inhibitors, concentration-response, biochemical, absorbance readout, ultra-high-throughput screen actives (AID 540297); type: functional
T1 sequence (Q9GZU7 whole entry): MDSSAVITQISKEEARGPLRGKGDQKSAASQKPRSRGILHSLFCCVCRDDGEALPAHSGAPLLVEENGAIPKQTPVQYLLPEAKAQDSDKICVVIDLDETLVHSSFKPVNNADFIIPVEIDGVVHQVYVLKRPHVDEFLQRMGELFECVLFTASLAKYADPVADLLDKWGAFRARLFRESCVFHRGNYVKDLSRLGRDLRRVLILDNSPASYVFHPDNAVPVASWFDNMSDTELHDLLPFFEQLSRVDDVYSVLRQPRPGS

[2] = target: Voltage-dependent T-type calcium channel subunit alpha-1H (Homo sapiens, UniProt O95180); type: functional;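 further: channel activity triggered by adding a high calcium stimulation buffer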
HEK293 = assay: EBV LMP1 TES2 canonical NF-kB signalling blockers – cell-based, HEK293, luciferase, cherry-pick, dose response (AID 588343); type: functional; conditions: Homo sapiens
Streptococcus = assay: GAS UMAA2166 growth inhibition – luminescence, BacTiterGlo, counter-screen for streptokinase expression inhibitor project, dose response (AID 1915); type: functional, organism-based;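 further: potency for reduction of bacterial viability or growth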
Streptokinase A = target: T2, Streptokinase A (Streptococcus pyogenes serotype M1, UniProt P10520); assay: viability-normalized secreted streptokinase activity reduction – plasminogen activation absorbance, OD405, dose response (AID 1914); type: functional, Streptococcus pyogenes M1 GAS;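 further: secreted streptokinase activity via plasminogen activation per viability signal from cell pellet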
T2 sequence (P10520 whole entry): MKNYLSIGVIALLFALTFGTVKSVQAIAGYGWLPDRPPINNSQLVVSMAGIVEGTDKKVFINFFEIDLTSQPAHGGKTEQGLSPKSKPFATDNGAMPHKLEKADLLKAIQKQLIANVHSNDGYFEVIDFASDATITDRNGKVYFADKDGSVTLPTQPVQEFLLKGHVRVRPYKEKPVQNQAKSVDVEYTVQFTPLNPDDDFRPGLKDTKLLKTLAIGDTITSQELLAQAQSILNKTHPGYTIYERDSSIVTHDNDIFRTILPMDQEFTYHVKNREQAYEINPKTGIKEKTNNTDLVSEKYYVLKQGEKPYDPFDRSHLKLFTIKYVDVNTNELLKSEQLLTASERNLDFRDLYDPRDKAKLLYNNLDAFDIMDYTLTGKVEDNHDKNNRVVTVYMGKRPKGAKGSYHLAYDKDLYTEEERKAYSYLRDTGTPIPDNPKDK

[3] = test system: Streptococcus sp. 'group A'; assay: Streptococcus pyogenes SK(-)GAS viability under kanamycin – luminescence, BacTiterGlo, confirmation, counter-screen for streptokinase expression inhibitor project, dose response (AID 1900); type: functional, organism-based
[4] = target: T3, Calpain-2 catalytic subunit (Sus scrofa, UniProt P43367); assay: m-calpain protease blockers, concentration series – biochemical, fluorogenic peptide substrate, dose response (AID 1420); type: functional
T3 sequence (P43367 whole entry): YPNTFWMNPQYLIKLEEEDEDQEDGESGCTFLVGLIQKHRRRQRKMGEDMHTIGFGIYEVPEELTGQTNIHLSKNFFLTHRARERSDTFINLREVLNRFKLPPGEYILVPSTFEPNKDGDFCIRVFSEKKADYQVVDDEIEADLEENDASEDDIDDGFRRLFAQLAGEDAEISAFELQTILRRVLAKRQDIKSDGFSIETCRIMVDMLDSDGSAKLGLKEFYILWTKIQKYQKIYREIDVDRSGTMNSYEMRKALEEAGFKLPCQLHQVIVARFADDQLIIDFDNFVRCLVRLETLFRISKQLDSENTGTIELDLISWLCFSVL

SUMO-activating enzyme = SUMO-activating enzyme (Homo sapiens, UniProt Q9UBT2); assay: blockers of UBC9-mediated SUMO conjugation – biochemical, AlphaScreen, SUMOylation inhibitor project, confirmation (AID 2018); type: functional
BJ [5] = assay: BJ-TERT-LT-ST fibroblast viability loss – cell-based, RAS-independent, luminescence, dose response (AID 1935); type: functional; conditions: Homo sapiens;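 further: BJ fibroblasts immortalized with TERT plus LT and ST oncogenes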
[6] = DRD fibroblast viability loss – cell-based, non-viral oncogenic, luminescence, dose response (AID 1934); type: functional; conditions: Homo sapiens
BJ [7] = assay: cells; type: functional, cell-based; conditions: Homo sapiens
BJ [8] = assay: BJ-TERT fibroblast viability loss – cell-based, RAS-independent, luminescence, dose response (AID 1933); type: functional; conditions: Homo sapiens
[9] = blockers of HIV-1 envelope-mediated cell-cell fusion – cherry-pick, dose response (AID 652057); type: functional, cell-based
[10] = blockers of HIV-1 ZM109 envelope-driven cell-cell fusion – HeLa effector, CEM target cells, luciferase, cherry-pick, dose response (AID 652058); type: functional, cell-based;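 further: luciferase signal from HIV-1 Env mediated cell-cell fusion of effector and target cells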
[11] = target: T4, Ubiquitin-conjugating enzyme E2 N (Homo sapiens, UniProt P61088); type: functional;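 further: Dose-response confirmation in a TR-FRET assay detecting UBC13-driven polyubiquitin chain formation, inhibition measured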
T4 sequence (P61088 whole entry): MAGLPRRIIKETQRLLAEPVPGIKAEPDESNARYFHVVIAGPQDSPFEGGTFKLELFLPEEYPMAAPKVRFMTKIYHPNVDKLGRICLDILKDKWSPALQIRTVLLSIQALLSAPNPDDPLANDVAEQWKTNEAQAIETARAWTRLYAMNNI

[12] = microbe, parasite or virus in culture; type: functional; conditions: Mycobacterium tuberculosis
SN12K1 = assay: cells; type: functional; conditions: Homo sapiens
[13] = target: T5, Replicative DNA helicase DnaB (Mycobacterium tuberculosis, UniProt P9WMR3); assay: DnaB intein splicing inhibitors, dose response, biochemical, cell-free fluorescence (AID 449749); type: functional
T5 sequence (P9WMR3 whole entry): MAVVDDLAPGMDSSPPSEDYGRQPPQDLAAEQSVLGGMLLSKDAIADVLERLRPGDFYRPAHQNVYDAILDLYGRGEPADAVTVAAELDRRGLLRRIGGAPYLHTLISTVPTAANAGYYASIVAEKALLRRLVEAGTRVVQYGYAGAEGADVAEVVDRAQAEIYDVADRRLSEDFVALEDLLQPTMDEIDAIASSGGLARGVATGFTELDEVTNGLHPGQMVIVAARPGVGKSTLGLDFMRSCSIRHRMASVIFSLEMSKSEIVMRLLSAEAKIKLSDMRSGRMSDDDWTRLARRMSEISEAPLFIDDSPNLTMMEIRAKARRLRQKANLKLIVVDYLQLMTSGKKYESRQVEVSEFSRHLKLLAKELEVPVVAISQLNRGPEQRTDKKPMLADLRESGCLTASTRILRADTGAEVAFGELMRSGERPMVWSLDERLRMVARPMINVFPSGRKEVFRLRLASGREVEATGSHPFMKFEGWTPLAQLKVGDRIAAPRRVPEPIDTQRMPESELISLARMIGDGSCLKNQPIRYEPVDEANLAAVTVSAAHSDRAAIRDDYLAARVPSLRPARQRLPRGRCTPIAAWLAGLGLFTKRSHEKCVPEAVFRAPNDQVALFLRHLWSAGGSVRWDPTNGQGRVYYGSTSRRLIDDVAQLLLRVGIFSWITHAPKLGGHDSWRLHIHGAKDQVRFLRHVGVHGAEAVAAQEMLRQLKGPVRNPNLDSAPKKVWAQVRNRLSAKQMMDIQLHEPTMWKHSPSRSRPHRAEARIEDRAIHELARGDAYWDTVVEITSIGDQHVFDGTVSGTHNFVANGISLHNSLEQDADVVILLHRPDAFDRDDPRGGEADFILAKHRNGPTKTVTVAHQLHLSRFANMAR

Protein RecA = target: T6, Protein RecA (Mycobacterium tuberculosis, UniProt P9WHJ3); assay: Fluorescence Cell-Free Homogeneous Dose Retest to Identify Inhibitors of RecA-Intein Splicing Activity. [Related pubchem assays (depositor defined):AID2097, AID2223, AID489010, AID492950]; type: functional
T6 sequence (P9WHJ3 whole entry): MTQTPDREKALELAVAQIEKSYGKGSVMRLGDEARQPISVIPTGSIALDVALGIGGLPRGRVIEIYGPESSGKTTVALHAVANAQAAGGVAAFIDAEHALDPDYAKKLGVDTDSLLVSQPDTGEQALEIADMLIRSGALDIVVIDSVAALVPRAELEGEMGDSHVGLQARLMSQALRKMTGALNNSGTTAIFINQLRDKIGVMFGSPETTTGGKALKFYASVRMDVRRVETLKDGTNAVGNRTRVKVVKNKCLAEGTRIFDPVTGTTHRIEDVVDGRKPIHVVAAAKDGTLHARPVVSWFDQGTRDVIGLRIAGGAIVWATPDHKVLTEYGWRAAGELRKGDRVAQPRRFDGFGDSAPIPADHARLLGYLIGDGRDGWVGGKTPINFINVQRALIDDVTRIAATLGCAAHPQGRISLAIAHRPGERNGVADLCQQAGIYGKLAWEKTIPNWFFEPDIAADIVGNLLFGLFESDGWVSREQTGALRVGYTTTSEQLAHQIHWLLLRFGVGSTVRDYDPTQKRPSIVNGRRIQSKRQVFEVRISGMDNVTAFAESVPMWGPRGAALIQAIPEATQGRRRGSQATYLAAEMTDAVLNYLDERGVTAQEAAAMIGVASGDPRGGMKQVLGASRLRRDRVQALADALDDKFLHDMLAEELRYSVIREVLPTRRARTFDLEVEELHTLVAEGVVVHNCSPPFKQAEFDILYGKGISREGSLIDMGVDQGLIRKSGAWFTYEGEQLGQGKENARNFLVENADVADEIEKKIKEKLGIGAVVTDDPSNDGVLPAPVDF

INS1 = assay: INS-1E survival protection against cytokine death – cell-based, luminescence, retest, dose response (AID 449756); type: functional; conditions: Rattus norvegicus;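 further: cell death triggered by IL-1 beta plus TNF-alpha plus IFN-gamma mixture; protective hits raise ATP signal compared with cytokine alone wells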
[14] = target: T7, Heat shock factor protein 1 (Mus musculus, UniProt P38532); assay: decrease of HSF1-responsive luciferase luminescence – cell-based, NIH3T3, dose retest, confirmation (AID 2382); type: functional;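 further: NIH3T3 fibroblasts with HSF1-driven luciferase reporter stressed by proteasome inhibitor MG132; luminescence from HSF1-driven luciferase expression after 8 hours of MG132 stress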
T7 sequence (P38532 whole entry): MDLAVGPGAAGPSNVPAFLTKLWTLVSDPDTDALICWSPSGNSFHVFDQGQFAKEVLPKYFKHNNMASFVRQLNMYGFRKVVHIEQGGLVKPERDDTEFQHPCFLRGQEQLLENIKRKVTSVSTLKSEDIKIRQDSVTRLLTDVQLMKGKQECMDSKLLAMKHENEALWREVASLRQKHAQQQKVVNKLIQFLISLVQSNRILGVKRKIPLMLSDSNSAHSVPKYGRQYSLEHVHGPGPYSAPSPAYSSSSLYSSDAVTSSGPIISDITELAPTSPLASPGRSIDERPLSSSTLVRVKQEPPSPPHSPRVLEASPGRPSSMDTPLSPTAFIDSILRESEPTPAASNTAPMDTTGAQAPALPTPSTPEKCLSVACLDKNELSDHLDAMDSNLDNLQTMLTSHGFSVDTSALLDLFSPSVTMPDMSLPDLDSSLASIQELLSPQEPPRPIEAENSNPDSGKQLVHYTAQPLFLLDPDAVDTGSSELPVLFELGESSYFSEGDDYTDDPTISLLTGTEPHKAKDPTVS

Chain of Voltage-dependent T-type calcium channel subunit alpha-1H (O95180 whole entry): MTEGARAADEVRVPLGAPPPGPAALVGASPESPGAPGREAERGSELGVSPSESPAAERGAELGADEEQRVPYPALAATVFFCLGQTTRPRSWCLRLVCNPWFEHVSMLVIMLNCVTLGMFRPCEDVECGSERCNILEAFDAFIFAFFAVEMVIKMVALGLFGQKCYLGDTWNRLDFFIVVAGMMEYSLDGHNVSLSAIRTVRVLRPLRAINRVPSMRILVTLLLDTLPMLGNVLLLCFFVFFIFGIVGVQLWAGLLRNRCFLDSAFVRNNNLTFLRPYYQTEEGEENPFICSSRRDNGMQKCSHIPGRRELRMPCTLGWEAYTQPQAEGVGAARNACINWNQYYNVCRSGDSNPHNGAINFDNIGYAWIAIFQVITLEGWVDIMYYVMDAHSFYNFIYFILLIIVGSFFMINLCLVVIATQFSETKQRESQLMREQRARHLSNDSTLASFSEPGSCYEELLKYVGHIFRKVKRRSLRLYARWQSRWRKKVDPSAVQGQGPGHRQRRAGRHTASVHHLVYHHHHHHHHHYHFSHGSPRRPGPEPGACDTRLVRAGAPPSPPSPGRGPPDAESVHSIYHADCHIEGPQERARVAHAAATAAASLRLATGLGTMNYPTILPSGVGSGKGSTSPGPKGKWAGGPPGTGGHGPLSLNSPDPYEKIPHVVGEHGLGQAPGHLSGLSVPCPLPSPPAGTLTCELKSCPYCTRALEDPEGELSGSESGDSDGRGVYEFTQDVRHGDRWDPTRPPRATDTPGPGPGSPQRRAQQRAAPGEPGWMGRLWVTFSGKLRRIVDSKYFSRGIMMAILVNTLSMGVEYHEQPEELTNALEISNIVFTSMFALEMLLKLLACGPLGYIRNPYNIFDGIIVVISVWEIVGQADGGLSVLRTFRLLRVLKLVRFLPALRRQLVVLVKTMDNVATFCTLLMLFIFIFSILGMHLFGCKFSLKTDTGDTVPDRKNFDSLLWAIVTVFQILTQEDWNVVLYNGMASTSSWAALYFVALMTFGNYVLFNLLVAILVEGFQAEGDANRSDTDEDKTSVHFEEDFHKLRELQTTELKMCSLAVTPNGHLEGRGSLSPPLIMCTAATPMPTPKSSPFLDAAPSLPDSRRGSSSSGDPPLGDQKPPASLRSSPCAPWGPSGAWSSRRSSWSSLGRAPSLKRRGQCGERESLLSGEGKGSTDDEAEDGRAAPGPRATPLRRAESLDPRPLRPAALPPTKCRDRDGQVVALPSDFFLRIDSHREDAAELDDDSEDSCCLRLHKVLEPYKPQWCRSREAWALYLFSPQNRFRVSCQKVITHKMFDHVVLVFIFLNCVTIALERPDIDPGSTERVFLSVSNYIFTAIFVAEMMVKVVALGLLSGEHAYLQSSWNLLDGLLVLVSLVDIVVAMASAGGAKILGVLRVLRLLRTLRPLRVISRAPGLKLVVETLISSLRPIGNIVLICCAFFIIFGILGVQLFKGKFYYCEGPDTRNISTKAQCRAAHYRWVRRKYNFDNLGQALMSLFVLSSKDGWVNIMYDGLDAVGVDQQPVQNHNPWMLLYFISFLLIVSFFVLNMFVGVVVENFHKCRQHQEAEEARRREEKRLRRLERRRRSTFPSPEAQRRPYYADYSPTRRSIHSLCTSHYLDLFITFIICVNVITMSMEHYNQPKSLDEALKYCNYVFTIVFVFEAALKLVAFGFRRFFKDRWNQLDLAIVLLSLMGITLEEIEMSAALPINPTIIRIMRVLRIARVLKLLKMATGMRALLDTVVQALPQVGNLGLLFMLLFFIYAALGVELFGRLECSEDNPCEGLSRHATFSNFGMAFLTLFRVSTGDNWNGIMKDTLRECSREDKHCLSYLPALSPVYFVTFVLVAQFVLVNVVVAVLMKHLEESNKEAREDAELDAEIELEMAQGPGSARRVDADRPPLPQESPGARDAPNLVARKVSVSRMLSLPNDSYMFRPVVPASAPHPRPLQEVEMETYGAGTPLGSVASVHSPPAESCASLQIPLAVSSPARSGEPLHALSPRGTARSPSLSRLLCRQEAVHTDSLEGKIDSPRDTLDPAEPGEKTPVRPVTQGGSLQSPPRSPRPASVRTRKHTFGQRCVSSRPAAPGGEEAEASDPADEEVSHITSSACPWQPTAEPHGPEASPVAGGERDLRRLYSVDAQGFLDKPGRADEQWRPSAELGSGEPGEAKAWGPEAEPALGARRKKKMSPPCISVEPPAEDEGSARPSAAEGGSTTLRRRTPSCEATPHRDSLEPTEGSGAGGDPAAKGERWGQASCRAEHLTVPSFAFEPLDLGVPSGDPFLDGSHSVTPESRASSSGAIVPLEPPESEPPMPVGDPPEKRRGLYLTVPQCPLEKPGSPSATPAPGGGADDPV
Chain of SUMO-activating enzyme (Q9UBE0 whole entry): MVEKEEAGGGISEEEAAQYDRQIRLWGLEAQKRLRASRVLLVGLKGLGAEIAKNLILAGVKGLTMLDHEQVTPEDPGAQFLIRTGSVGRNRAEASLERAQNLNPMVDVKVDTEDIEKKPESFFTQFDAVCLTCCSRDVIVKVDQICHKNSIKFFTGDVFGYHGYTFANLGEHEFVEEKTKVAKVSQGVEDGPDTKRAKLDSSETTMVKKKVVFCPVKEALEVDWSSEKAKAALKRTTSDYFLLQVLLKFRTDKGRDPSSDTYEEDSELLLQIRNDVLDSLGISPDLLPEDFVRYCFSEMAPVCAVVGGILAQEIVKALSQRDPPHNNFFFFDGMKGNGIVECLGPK
Chain of SUMO-activating enzyme (Q9UBT2 whole entry): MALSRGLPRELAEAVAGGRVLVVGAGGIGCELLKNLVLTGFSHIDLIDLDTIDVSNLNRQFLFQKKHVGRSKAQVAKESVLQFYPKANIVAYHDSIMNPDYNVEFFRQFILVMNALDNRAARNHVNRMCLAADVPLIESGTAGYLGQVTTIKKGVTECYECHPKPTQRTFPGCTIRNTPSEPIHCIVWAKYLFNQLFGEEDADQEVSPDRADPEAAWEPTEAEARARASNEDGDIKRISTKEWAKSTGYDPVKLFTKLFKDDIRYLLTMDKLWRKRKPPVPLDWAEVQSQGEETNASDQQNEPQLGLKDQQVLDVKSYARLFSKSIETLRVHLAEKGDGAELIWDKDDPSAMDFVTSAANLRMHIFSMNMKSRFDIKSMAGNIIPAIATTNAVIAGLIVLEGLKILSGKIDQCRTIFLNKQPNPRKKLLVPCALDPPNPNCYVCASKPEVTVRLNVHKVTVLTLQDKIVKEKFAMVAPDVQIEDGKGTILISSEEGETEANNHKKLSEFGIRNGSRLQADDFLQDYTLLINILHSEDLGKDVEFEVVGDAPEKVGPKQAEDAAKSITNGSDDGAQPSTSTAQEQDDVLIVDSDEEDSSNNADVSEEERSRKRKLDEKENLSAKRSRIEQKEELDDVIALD

CN(C)c1cccc(/N=C2/C=C(N3CCOCC3)CC(C)(C)C2)c1
IC50 [1]: 5.65 µM (active)

CCOc1ccc(C(=O)Nc2c3c(nn2C(C)(C)C)CSC3)cc1OCC
EC50 [2]: 3.79 µM (active)

O=Cc1ccc(-c2cccs2)s1
AC50 (HEK293): 6.76 µM (active)

O=C(O)CNC(=O)CC1SC(NNC2=NC(=O)CS2)=NC1=O (stereo not given)
IC50 [1]: 5.27 µM (active)

COc1cc2ccccc2cc1C(=O)NC(=S)Nc1ccc(C(=O)O)cc1
IC50 [1]: 4.12 µM (active) | EC50 (Streptococcus): 60.9 µM (active) | EC50 (Streptokinase A): > 150 µM (not active) | EC50 [3]: 8.15 µM (active)

Cc1ccsc1S(=O)(=O)N1CCCC(CCC(=O)NCc2ccccc2F)C1 (stereo not given)
IC50 [4]: > 50 µM (not active)

Cc1cccc(C)c1OCC(=O)N=Nc1c(O)[nH]c2ccc(Br)cc12
IC50 (SUMO-activating enzyme): 10.6 µM (active)

Cc1cccc(NS(=O)(=O)c2ccc(NC(=O)CN(c3cc([N+](=O)[O-])ccc3C)S(C)(=O)=O)cc2)c1
EC50 (BJ [5]): 7.77 µM (inconclusive) | EC50 [6]: > 150 µM (not active) | EC50 (BJ [7]): 7.28 µM (active) | EC50 (BJ [8]): 22.7 µM (active)

CCOc1cc(/C=N/N=C(\N)c2nonc2N)cc(Br)c1OCc1cccc2ccccc12
IC50 (SUMO-activating enzyme): 80 µM (active)

CCc1ccc(S(=O)(=O)NCc2csc(-c3ccccc3)n2)s1
EC50 [2]: 4.61 µM (active)

Cc1ccc(S(=O)(=O)N(C)C[C@H]2Oc3cc(-c4cccc(F)c4)ccc3S(=O)(=O)N([C@H](C)CO)C[C@H]2C)cc1
AC50 [9]: 1.47 µM (active) | AC50 [10]: < 0.26 µM (active)

COc1ccccc1N1CCN(C(=O)CCC(=O)Nc2nnc(CC(C)C)s2)CC1
EC50 (BJ [5]): > 150 µM (not active) | EC50 [6]: > 150 µM (inconclusive) | EC50 (BJ [7]): > 150 µM (not active) | EC50 (BJ [8]): > 150 µM (not active)

CC[C@@H](C)[C@H](CN[C@H](CNC)C(C)C)NC[C@@H](C)c1ccc(CC(C)C)cc1
IC50 [11]: > 20 µM (inactive) | CC50 [12]: 10 µM (active)

C/C=C/C1=C(Cl)C(=O)[C@@H](Cl)[C@@]1(O)C(=O)OC [(+)-CRYPTOSPORIPSIN]
GI50 (SN12K1): 1.89 µM (inactive)

COc1cccc(-c2nnc(SCC(=O)NCc3ccc4c(c3)OCO4)n2Cc2ccco2)c1
EC50 [2]: 8.92 µM (active)

CC(=O)c1sc(NC(=O)COc2ccc(C(C)C)c(C)c2)nc1C
IC50 [4]: 9.95 µM (not active)

Cn1c2ccccc2c2cc(C(=O)NNC(=O)CCl)sc21
AC50 [13]: > 380 µM (inactive) | EC50 (Protein RecA): 15.7 µM (active) | CC50 [12]: 21.3 µM (active)

CC(=O)N1c2ccccc2N(Cc2ccc(C)cc2C)C(=O)C1(C)C
EC50 [2]: 4.43 µM (active)

CC(C)NC(=S)N/N=C/c1cc(Br)ccc1O
AC50 (INS1): 1.65 µM (active) | CC50 [12]: 38.5 µM (active)

CC(C)[C@H](NC(=O)Cc1ccccc1)C(=O)OCc1cc(=O)n2c(n1)sc1ccccc12
IC50 [1]: 3.58 µM (active) | EC50 [14]: 21.5 µM (active)
